Measurements from publication PMC9693223 (Molecules, 2022).
Where two headings read alike, the source gives them in different places.

Experiments:
TcrNT2 = TcrNT2 (Trypanosoma cruzi, UniProt Q4DHG0); experiment: Transport of [^3H]-thymidine by TcrNT2 expressed in L. mexicana Cas9^ΔNT1 (Km, inhibition); assay type: cell-based; conditions: for ΔG° (Gibbs free energy of interaction): calculated from Km or Ki at 25 °C; for Ki: read-out: Ki on the transport of [^3H]-thymidine by TcrNT2; for δ(ΔG°), pairwise comparison with 2′-deoxyuridine: pairwise comparison vs. 2′-deoxyuridine; for δ(ΔG°) with respect to ΔG° of thymidine: change in ΔG° relative to thymidine; for δ(ΔG°), pairwise comparison with uridine: pairwise comparison vs. uridine
Description: These values can be used to calculate the Gibbs free energy of interaction ΔG°, but these experiments cannot distinguish between the test compound being transported or merely binding to the transporter and inhibiting the transit of the [^3H]-thymidine.
Transport assays were conducted with radiolabeled nucleosides [methyl-^3H]-thymidine (20 Ci/mmol; PerkinElmer (Waltham, MA, USA)) and [2,8-^3H]-adenosine (40 Ci/mmol; American Radiolabeled Chemicals (ARC, St-Louis, MO, USA)). Cells were harvested from mid-log phase cultures by centrifugation and washed into an assay buffer (AB) as described, at a density of 1 × 10^8 cells mL^−1. Transport assays were then performed exactly as described previously, using an oil-stop protocol. Briefly, 100 µL of cell suspension (10^7 cells) was mixed with 100 µL of [^3H]-substrate at 2 × final concentration and incubated for a pre-set time prior to the addition of 800 µL of ice-cold AB containing a saturating concentration of unlabeled permeant (usually 1 or 2.5 mM) and immediate centrifugation through an oil layer to separate cells from extracellular radiolabel. The 100 µL of [^3H]-substrate could also contain unlabeled substrate or an inhibitor at 2 × concentration, as appropriate. Next, the microfuge tubes were flash frozen in liquid nitrogen; the tips with the cell pellets cut off and collected in scintillation tubes. Cells were solubilized by incubation in 2% SDS under gentle shaking on a rocking platform prior to the addition of scintillation fluid (Scintilogic U, Lablogic, Sheffield, UK). The tubes stored in the dark overnight before counting in a 300SL Hidex Scintillation Counter (Lablogic).
Michaelis-Menten constants (Km) were calculated by plotting transport rates of [^3H]-substrate against the concentration, using the Michaelis-Menten equation V0 = Vmax([substrate]/([substrate] + Km)) and non-linear regression in GraphPad Prism 8. Inhibition constants (Ki) were calculated using the Cheng-Prusoff equation: Ki = IC50/(1 + (L/Km)), where L represents the radiolabel concentration. The IC50 was obtained by a non-linear regression of the inhibition curve of transport rate versus inhibitor concentration, using an equation for a sigmoid curve with variable slope (GraphPad Prism 8). The Gibbs free energy ΔG° was obtained using the equation ΔG° = −RTln(Ki), in which R is the gas constant and T is the absolute temperature. As discussed previously, these equations apply to competitive rather than non-competitive inhibition. Given that only close analogues of the substrate were used as potential inhibitors and that Hill slopes were consistently close to −1, it is very likely that inhibition was indeed competitive.

[1] = tested on: L. mexicana Cas9^ΔNT1+TcrNT2 promastigotes; experiment: Alamar blue drug sensitivity assay, L. mexicana Cas9^ΔNT1+TcrNT2 promastigotes; assay type: cell-based, Leishmania mexicana; conditions: Cas9^ΔNT1+TcrNT2 in comparison to L. mexicana Cas9^ΔNT1
From the text: (§1) We used L. mexicana promastigotes of the Cas9 strain developed by Beneke at al. to generate the ΔNT1 strain, and from there the Cas9^ΔNT1+TcrNT2 (see below); The original Cas9 strain was generously donated by Prof. Eva Gluenz (University of Bern, Switzerland). All strains in standard HOMEM (GIBCO, Life Technologies, Paisley, UK) supplemented with 10% heat-inactivated fetal bovine serum (FBS; PAA Laboratories, Linz, Austria) and 1% of a penicillin–streptomycin solution (10,000 U mL^−1 each; Life Technologies) at 25 °C, as described.
(§2) The Alamar blue assay (resazurin sodium salt) was used to determine the drug sensitivity of the L. mexicana promastigotes in vitro. The assay is based on the reduction of resazurin sodium salt (blue and non-fluorescent) to resorufin (pink color and fluorescent) by live cells. HOMEM medium with 10% FBS (100 μL) was added to all wells of a white 96-well plate apart from the first well. 200 μL of a known concentration of test compounds was diluted in HOMEM medium and placed in the first well. Compounds were tested in one plate and every compound was diluted over two rows (23 concentrations), leaving the last well of every dilution as a negative control having 100 μL HOMEM medium. Next, 100 μL of L. mexicana culture at a density of 2 × 10^6 cells mL^−1 was added into every well in the plate and incubated for 72 h at a temperature of 25 °C after which resazurin sodium salt (Sigma) (20 μL of a solution of 12.5 mg in 100 mL PBS) was added and the plate was incubated under the same conditions for a further 48 h. Fluorescence was measured in a FLUOstar OPTIMA plate reader (BMG Labtech, Germany), at a wavelength of 544 nm for excitation and 620 nm for emission. The EC50 values and fluorescence data were determined and plotted by the GraphPad Prism 8 Software using an equation for a sigmoid curve with variable slope. Pentamidine was used as positive control and every experiment was performed 3–4 times independently.

[2] = tested on: L. mexicana Cas9 promastigotes; experiment: Alamar blue drug sensitivity assay, L. mexicana Cas9 promastigotes; assay type: cell-based, Leishmania mexicana; conditions: Leishmania mexicana, 120 h, 72 h + 48 h resazurin, at least 3 independent determinations, read-out: EC50 (µM) AVG ± SEM, Cas9
From the text: as §1, §2

[3] = tested on: L. mexicana Cas9^ΔNT1 promastigotes; experiment: Alamar blue drug sensitivity assay, L. mexicana Cas9^ΔNT1 promastigotes; assay type: cell-based, Leishmania mexicana; conditions: EC50 Cas9^ΔNT1 relative to L. mexicana Cas9
From the text: as §1, §2

[4] = TcrNT2 in L. mexicana Cas9^ΔNT1, […] [^3H]-thymidine, IC50 converted to Ki (Cheng-Prusoff)

Chain of TcrNT2 (Q4DHG0 entry or part of it): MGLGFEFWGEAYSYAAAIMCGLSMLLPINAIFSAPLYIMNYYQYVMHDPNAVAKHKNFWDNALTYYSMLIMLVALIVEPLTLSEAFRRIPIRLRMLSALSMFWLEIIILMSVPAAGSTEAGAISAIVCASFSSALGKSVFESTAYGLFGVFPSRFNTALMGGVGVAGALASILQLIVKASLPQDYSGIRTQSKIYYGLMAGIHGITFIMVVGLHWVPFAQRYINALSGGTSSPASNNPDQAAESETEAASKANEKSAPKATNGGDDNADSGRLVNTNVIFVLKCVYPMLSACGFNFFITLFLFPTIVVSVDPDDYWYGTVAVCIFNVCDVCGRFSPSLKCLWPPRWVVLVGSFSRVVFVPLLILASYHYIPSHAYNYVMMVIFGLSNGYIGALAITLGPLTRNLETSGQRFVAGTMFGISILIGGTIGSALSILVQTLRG

Cc1cn([C@H]2C[C@H](O)[C@@H](CO)O2)c(=O)[nH]c1=S [4-thiothymidine]
ΔG° (Gibbs free energy of interaction) (TcrNT2): -7.58 kcal/mol
Ki (TcrNT2): 2.79 ± 0.11 µM

Nc1ncnc2c1c(F)cn2[C@@H]1O[C@H](CO)C[C@H]1O [FH8517, 7-F-3′-deoxytubercidin]
RF vs. ΔNT1 (resistance factor) [1]: 1.28
EC50 [2]: 3.18 ± 0.78 µM
RF vs. Cas9 (resistance factor) [3]: 3.93

Nc1ncnc2c1c(-c1ccccc1)cn2[C@@H]1O[C@H](CO)C[C@H]1O [FH8480]
EC50 [2]: > 500 µM

Nc1ncnc2c1c(Br)cn2[C@@H]1O[C@H](CO)C[C@H]1O [FH7429-UP]
RF vs. ΔNT1 (resistance factor) [1]: 2.27
EC50 [2]: 8 ± 0.8 µM
RF vs. Cas9 (resistance factor) [3]: 1.17

Nc1ncnc2c1c(I)cn2[C@@H]1O[C@H](CO)[C@@H](O)[C@H]1O [FH3141]
RF vs. ΔNT1 (resistance factor) [1]: 7.83
EC50 [2]: 1.08 ± 0.202 µM
RF vs. Cas9 (resistance factor) [3]: 13.4

O=c1[nH]c(=O)n([C@H]2C[C@H](O)[C@@H](CO)O2)cc1I [5-I-2′-deoxyuridine]
Ki (TcrNT2; [4]): 0.19 ± 0.04 µM
ΔG° (Gibbs free energy of interaction) (TcrNT2): -9.15 kcal/mol
δ(ΔG°), pairwise comparison with 2′-deoxyuridine (TcrNT2): 1.14 kcal/mol
δ(ΔG°), pairwise comparison with 2′-deoxyuridine (TcrNT2; listed as 5-I-2′-dUrd): -1.15 kcal/mol

Nc1ncnc2c1c(Br)nn2[C@@H]1O[C@H](CO)[C@@H](O)[C@H]1O [JBMAM021]
RF vs. ΔNT1 (resistance factor) [1]: 0.97
EC50 [2]: 3.8 ± 0.66 µM
RF vs. Cas9 (resistance factor) [3]: 79.9

Nc1ncnc2c1c(-c1ccc(Cl)cc1)nn2[C@@H]1O[C@H](CO)[C@@H](O)[C@H]1O [JB602]
EC50 [2]: > 500 µM

Nc1ncnc2c1cnn2[C@@H]1O[C@H](CO)[C@@H](O)[C@H]1O [JBMAM030, aminopurinol riboside]
RF vs. ΔNT1 (resistance factor) [1]: 0.94
EC50 [2]: 7.81 ± 0.9 µM
RF vs. Cas9 (resistance factor) [3]: 39.8

Cc1cn([C@H]2C[C@H](O)[C@@H](C)O2)c(=O)[nH]c1=O [5′-deoxythymidine]
ΔG° (Gibbs free energy of interaction) (TcrNT2): -7.72 kcal/mol
δ(ΔG°) with respect to ΔG° of thymidine (TcrNT2): -1.26 kcal/mol
Ki (TcrNT2): 2.2 ± 0.03 µM

C#Cc1cn([C@@H]2O[C@H](CO)[C@@H](O)[C@H]2O)c2ncnc(N)c12 [FH3143]
RF vs. ΔNT1 (resistance factor) [1]: 3.11
EC50 [2]: 0.12 ± 0.021 µM
RF vs. Cas9 (resistance factor) [3]: 7.74

Nc1ncnc2c1c(C(F)(F)F)cn2[C@@H]1O[C@H](CO)[C@@H](O)[C@H]1O [FH6367, 7-(trifluoromethyl)-tubercidin]
RF vs. ΔNT1 (resistance factor) [1]: 1.91
EC50 [2]: 1.42 ± 0.177 µM
RF vs. Cas9 (resistance factor) [3]: 1.44

Cc1cn([C@@H]2O[C@H](CO)[C@@H](O)[C@H]2O)c(=O)[nH]c1=O [5-Me-uridine, 5-methyluridine]
ΔG° (Gibbs free energy of interaction) (TcrNT2): -6.21 kcal/mol
δ(ΔG°) with respect to ΔG° of thymidine (TcrNT2): -2.77 kcal/mol
δ(ΔG°) with respect to ΔG° of thymidine (TcrNT2; listed as 5-Me-Urd): 2.77 kcal/mol
δ(ΔG°) with respect to ΔG° of thymidine (TcrNT2; listed as 5-methyluridine): 2.765 kcal/mol
δ(ΔG°), pairwise comparison with uridine (TcrNT2): -1.08 kcal/mol
Ki (TcrNT2): 28 ± 0.4 µM

O=c1[nH]c(=O)n([C@@H]2O[C@H](CO)[C@@H](O)[C@H]2O)cc1Br [5-Br-uridine]
Ki (TcrNT2; [4]): 30.1 ± 1.8 µM
ΔG° (Gibbs free energy of interaction) (TcrNT2): -6.17 kcal/mol
δ(ΔG°) with respect to ΔG° of thymidine (TcrNT2): -2.82 kcal/mol
δ(ΔG°), pairwise comparison with uridine (TcrNT2): -1.03 kcal/mol
